Laboratory results published in patent publication US12077503B2, “Substituted cyclic amides and their use as herbicides” (FMC CORPORATION, priority 2015, dated 2024).

Experiments:
Experiment in all cases: Test C postemergence
Assay type in all cases: in vivo
Details in all cases: scale 0 to 100, 0 no effect, 100 complete control
[1] = tested on: johnsongrass (Sorghum halepense)
Description: (§1) Seeds of plant species selected from blackgrass (Alopecurus myosuroides), ryegrass, Italian (Italian ryegrass, Lolium multiflorum), wheat (winter wheat, Triticum aestivum), Galium (catchweed bedstraw, Galium aparine), corn (Zea mays), crabgrass, large (large crabgrass, Digitaria sanguinalis), foxtail, giant (giant foxtail, Setaria faberii), johnsongrass (Sorghum halepense), lambsquarters (Chenopodium album), morningglory (Ipomoea coccinea), nutsedge, yellow (yellow nutsedge, Cyperus esculentus), pigweed (Amaranthus retroflexus), ragweed (common ragweed, Ambrosia elatior), soybean (Glycine max), barnyardgrass (Echinochloa crus-galli), oilseed rape (Brassica napus), waterhemp (common waterhemp, Amaranthus rudis) and velvetleaf (Abutilon theophrasti) were planted into a blend of loam soil and sand and treated preemergence with test chemicals formulated in a non-phytotoxic solvent mixture which included a surfactant.
(§2) At the same time, plants selected from these crop and weed species and also Kochia (Kochia scoparia), oat, wild (wild oat, Avena fatua), and chickweed (common chickweed, Stellaria media) were planted in pots containing Sunshine Redi-Earth® planting medium comprising spaghnum peat moss, vermiculite, starter nutrients and dolomitic limestone and treated with postemergence applications of test chemicals formulated in the same manner. Plants ranged in height from 2 to 18 cm (1- to 4-leaf stage) for postemergence treatments. Treated plants and controls were maintained in a greenhouse for 13 to 15 d, after which time all species were compared to controls and visually evaluated. Plant response ratings, summarized in Table C, are based on a scale of 0 to 100 where 0 is no effect and 100 is complete control. A dash (-) response means no test result.

[2] = tested on: ragweed (common ragweed, Ambrosia elatior)
Description: as §1, §2

[3] = tested on: corn (Zea mays)
Description: as §1, §2

SMILES	Plant response rating, Johnsongrass ([1]; 31 g ai/ha)	Plant response rating, Johnsongrass ([1]; 62 g ai/ha)	Plant response rating, Johnsongrass ([1]; 125 g ai/ha)	Plant response rating, Johnsongrass ([1]; 250 g ai/ha)	Plant response rating, Ragweed ([2]; 31 g ai/ha)	Plant response rating, Ragweed ([2]; 62 g ai/ha)	Plant response rating, Ragweed ([2]; 125 g ai/ha)	Plant response rating, Ragweed ([2]; 250 g ai/ha)	Plant response rating, Corn ([3]; 31 g ai/ha)	Plant response rating, Corn ([3]; 62 g ai/ha)	Plant response rating, Corn ([3]; 125 g ai/ha)	Plant response rating, Corn ([3]; 250 g ai/ha)
O=C1NCC(c2ccc3c(c2)OC(F)(F)O3)C1C(=O)Nc1cccc(F)c1F (stereo not drawn) [Compound 635]	0	0	5	5	25	60	70	80	0	0	5	40
CN1CC(c2ccc(F)c(F)c2)C(C(=O)Nc2ccccc2C(F)(F)F)C1=O (stereo not drawn) [Compound 641]	0	0	0	0	0	0	40	30	0	0	0	10
